From US7420100B2, “Methods and compositions relating to HDAC 4 and 5 regulation of cardiac gene expression” (Board of Regents, The University of Texas System, priority 1999, dated 2008)

Assays:
[1] = test system: hypertrophic response to endothelin-1; details: in vitro; cited from earlier work
cultured cardiomyocytes = details: α-adrenergic stimulation and Ca2+ channel agonists; cited from earlier work
[2] = test system: HDAC 5-green fluorescent protein (GFP) chimeric molecule; experiment: subcellular distribution of HDAC 5-GFP in CaMKI-expressing cells exposed to leptomycinB; assay type: cell-based; details: CaMKI-expressing cells treated with leptomycinB
Description: In principle, nuclear exclusion of HDAC 5 could result from inhibition of nuclear import or stimulation of nuclear export. To distinguish between these possibilities, the subcellular distribution of an HDAC 5-green fluorescent protein (GFP) chimeric molecule was monitored in cells exposed to leptomycinB, a fungal toxin that blocks nuclear export. In CaMK1 expressing cells, HDAC 5 is localized to the cytoplasm.

[3] = test system: GAL4-MEF2C fusion protein; experiment: activation of GAL4-MEF2C fusion protein in cardiomyocytes; assay type: cell-based, rat; details: stimulation of cardiomyocytes
Experimental: Preparation of primary rat cardiomyocytes. Cardiomyocyte cultures are prepared by dissociation of 1-day old neonatal rat hearts and were differentially plated to remove fibroblasts. To induce the hypertrophic response, AngII and PE are added to cardiomyocyte cultures at 10 nM and 10 μM, respectively, in serum-free M199 media. The culture media containing either agonist is changed every 12 hours for a period of 72 hours.
In light of the ability of MEF2 to respond to calcium-dependent signal transduction pathways in T cells, the inventors have investigated whether the same pathways also activate MEF2 in cardiomyocytes. […] When the C-terminus of MEF2C, which contains the transcription activation domains (TADs), but lacks the MADS and MEF2 domains required for DNA binding and dimerization, is fused to the DNA binding domain of the yeast transcription factor GAL4, the resulting GAL4-MEF2C fusion protein retains sensitivity to calcineurin and CaMKIV. This GAL4-MEF2C fusion protein is also activated by stimulation of cardiomyocytes with the hypertrophic agonist phenylephrine (PE).

BZLF1 = details: cited from earlier work

For COc1ccc(S(=O)(=O)N(CCO)c2ccccc2CN(C)C/C=C/c2ccc(Cl)cc2)cc1 [KN-93], which “effect on hypertrophic response to endothelin-1” value [1] is on record?
The value was “can block the hypertrophic response”.

Which effect on hypertrophy (cultured cardiomyocytes) does the source give for NCCCCCCNS(=O)(=O)c1cccc2c(Cl)cccc12 [W-7] here?
The effect on hypertrophy was “prevents hypertrophy”.

Which results are given for CCC(=C/[C@H](C)C/C=C/C(C)=C/[C@@H](C)C(=O)[C@@H](C)[C@H](O)[C@@H](C)C/C(C)=C/C(=O)O)/C=C/[C@@H]1OC(=O)C=C[C@@H]1C [leptomycinB]?
subcellular localization of HDAC 5 [2]: translocation of HDAC 5 from the cytoplasm to the nucleus; time course of HDAC 5 translocation from cytoplasm to nucleus [2]: 4 h

With CNC[C@H](O)c1cccc(O)c1 [phenylephrine] as the compound, how does the “activation of GAL4-MEF2C fusion protein” value [3] read?
The value was “activated”.

With cyclosporin A [CsA] as the compound, how does the “effect on BZLF1 transcription” value (BZLF1) read?
Its value is “inhibited”.
